From ChEMBL document CHEMBL5512607, “Journey of Von Hippel-Lindau (VHL) E3 ligase in PROTACs design: From VHL ligands to VHL-based degraders” (Eur J Med Chem, 2024)
Values belong to the compound of their own block, whether it stands above or below them.

How the values were obtained:
[1] = target: T1, von Hippel-Lindau disease tumor suppressor (Homo sapiens, UniProt P40337); test: Inhibition of VHL (unknown origin)
[2] = target: T1, von Hippel-Lindau disease tumor suppressor; test: Binding affinity to VHL (unknown origin) assessed as dissociation constant by fluorescence polarization assay
[3] = test system: von Hippel-Lindau disease tumor suppressor/Mitogen-activated protein kinase 14; test: PROTAC activity at VHL/N-terminal His-tagged human p38alpha expressed in […] assessed as maximal degradation relative to control
[4] = PROTAC activity at VHL/N-terminal His-tagged human p38alpha expressed in […] assessed as p38alpha degradation
[5] = target: T2, von Hippel-Lindau disease tumor suppressor/Androgen receptor (Homo sapiens, UniProt P10275+P40337); test: PROTAC activity at VHL/AR in human LNCaP cells assessed as induction of AR degradation by Western blot analysis; type: cell-based
Target sequence in this assay (P10275 whole entry): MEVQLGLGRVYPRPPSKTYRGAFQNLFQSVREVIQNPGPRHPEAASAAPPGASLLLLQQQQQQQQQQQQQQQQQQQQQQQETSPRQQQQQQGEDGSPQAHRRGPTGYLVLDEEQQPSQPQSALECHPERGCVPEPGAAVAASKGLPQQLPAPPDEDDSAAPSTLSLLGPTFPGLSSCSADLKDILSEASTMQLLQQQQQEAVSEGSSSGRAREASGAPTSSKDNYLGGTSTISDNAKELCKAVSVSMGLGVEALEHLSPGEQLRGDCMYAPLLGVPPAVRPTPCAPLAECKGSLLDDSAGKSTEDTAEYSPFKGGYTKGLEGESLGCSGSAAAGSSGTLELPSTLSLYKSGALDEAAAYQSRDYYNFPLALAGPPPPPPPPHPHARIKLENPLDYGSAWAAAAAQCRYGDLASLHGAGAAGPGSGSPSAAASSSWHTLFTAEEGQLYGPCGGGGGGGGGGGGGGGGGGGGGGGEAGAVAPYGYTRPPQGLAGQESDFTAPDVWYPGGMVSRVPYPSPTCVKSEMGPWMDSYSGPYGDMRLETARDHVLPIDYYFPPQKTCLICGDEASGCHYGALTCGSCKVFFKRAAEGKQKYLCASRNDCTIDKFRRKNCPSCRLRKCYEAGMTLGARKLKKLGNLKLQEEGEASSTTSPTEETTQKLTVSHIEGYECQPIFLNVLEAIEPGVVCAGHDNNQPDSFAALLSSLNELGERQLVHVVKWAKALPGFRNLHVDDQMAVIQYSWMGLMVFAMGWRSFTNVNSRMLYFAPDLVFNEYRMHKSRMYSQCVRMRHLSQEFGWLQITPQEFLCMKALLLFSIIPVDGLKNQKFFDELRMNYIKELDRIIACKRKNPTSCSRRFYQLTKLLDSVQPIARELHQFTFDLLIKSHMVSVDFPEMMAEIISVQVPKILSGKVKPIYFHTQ
Target sequence in this assay (P40337 whole entry): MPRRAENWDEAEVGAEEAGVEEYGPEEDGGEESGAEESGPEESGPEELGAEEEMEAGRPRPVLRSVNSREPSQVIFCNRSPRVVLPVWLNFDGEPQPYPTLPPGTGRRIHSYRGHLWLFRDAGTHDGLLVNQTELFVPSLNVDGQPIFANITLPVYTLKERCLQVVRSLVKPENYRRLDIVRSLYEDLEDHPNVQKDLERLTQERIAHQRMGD

[6] = target: T2, von Hippel-Lindau disease tumor suppressor/Androgen receptor; test: PROTAC activity at VHL/AR in human LNCaP cells assessed as maximum degradation of AR at 75 uM incubated for 16 hrs by Western blot analysis relative to control; type: cell-based
Target sequence in this assay (P10275 whole entry, looked up): as the sequence (P10275 whole entry) above
Target sequence in this assay (P40337 whole entry, looked up): as the sequence (P40337 whole entry) above

[7] = test system: von Hippel-Lindau disease tumor suppressor/Epidermal growth factor receptor (Homo sapiens), P00533+P40337 [UNDEFINED MUTATION]; test: PROTAC activity at VHL/EGFR Ex20ins mutant in human HeLa cells assessed as maximal degradation incubated for 24 hrs by immunoblot analysis relative to control; type: cell-based
[8] = target: T3, von Hippel-Lindau disease tumor suppressor/Epidermal growth factor receptor (Homo sapiens, UniProt P00533+P40337); test: PROTAC activity at VHL/wild type EGFR in human OVCAR-8 cells assessed as maximal degradation incubated for 24 hrs by immunoblot analysis relative to control; type: cell-based
[9] = target: T3, von Hippel-Lindau disease tumor suppressor/Epidermal growth factor receptor; test: PROTAC activity at VHL/EGFR Ex20ins mutant in human HeLa cells assessed as protein degradation incubated for 24 hrs by immunoblot analysis; type: cell-based
Target sequence in this assay (P00533 whole entry, looked up, stated change not applied): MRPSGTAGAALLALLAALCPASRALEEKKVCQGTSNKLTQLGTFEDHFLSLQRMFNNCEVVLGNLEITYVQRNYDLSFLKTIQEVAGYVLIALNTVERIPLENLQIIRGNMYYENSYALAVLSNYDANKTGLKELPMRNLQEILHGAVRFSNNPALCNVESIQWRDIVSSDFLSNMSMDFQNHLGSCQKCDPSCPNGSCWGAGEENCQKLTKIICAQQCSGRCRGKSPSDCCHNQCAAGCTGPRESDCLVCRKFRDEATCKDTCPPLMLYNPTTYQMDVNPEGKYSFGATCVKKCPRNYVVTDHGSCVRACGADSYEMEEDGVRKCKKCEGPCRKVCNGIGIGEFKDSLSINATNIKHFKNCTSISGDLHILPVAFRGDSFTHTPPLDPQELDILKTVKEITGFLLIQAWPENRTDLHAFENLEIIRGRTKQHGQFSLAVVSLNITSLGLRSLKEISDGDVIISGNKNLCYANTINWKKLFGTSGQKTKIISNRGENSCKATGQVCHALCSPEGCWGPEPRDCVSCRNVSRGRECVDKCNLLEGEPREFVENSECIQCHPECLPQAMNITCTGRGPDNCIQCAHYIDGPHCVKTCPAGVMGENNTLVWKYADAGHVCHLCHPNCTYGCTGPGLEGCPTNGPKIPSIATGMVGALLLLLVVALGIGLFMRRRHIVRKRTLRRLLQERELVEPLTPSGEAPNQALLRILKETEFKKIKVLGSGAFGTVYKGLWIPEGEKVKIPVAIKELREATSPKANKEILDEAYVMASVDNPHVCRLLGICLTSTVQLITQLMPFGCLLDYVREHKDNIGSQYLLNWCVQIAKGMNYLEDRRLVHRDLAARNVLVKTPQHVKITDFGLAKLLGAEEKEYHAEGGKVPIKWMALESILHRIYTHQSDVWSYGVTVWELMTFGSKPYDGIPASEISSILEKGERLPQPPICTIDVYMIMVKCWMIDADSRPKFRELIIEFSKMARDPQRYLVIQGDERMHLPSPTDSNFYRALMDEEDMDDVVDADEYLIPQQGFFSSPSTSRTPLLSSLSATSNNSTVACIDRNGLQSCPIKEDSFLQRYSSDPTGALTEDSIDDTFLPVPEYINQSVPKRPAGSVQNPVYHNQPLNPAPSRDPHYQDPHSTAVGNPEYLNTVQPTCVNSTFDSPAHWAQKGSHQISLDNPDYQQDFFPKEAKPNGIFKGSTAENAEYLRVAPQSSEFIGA
Target sequence in this assay (P40337 whole entry, looked up, stated change not applied): as the sequence (P40337 whole entry) above

[10] = target: T3, von Hippel-Lindau disease tumor suppressor/Epidermal growth factor receptor; test: PROTAC activity at VHL/wild type EGFR in human OVCAR-8 cells assessed as protein degradation incubated for 24 hrs by immunoblot analysis; type: cell-based
[11] = target: T1, von Hippel-Lindau disease tumor suppressor; test: Inhibition of NanoLuc-fused VHL (unknown origin) transfected in live HEK293 cells using NanoGlo as substrate incubated for 1 hrs by tracer based NanoBRET assay; type: cell-based
[12] = target: T1, von Hippel-Lindau disease tumor suppressor; test: Binding affinity to NanoLuc-fused VHL (unknown origin) transfected in live HEK293 cells using NanoGlo as substrate assessed as dissociation constant incubated for 1 hrs by tracer based NanoBRET assay; type: cell-based
[13] = test system: von Hippel-Lindau disease tumor suppressor/Epidermal growth factor receptor (Homo sapiens), P00533+P40337 [L858R,T790M]; test: PROTAC activity at VHL/EGFR L858R/T790M double mutant in human NCI-H1975 cells assessed as maximal degradation of EGFR incubated for 24 hrs by immunoblotting analysis relative to control; type: cell-based
[14] = target: von Hippel-Lindau disease tumor suppressor/Bromodomain-containing protein 4 (Homo sapiens, UniProt O60885+P40337); test: PROTAC activity at human VHL/BRD4 in human HeLa cells assessed as degradation of BRD4 incubated for 24 hrs by Western blot analysis; type: cell-based
[15] = target: Von Hippel-Lindau disease tumor suppressor/Elongin B/Elongin C (Homo sapiens, UniProt P40337); test: Inhibition of VHL/Elongin B/Elogin C (unknown origin) using FAM-DEALA-Hyp-YIPD as substrate by fluorescence polarization assay; type: protein-complex assay
[16] = target: T4, von Hippel-Lindau disease tumor suppressor/Bromodomain-containing protein 2 (Homo sapiens, UniProt P25440+P40337); test: PROTAC activity at human VHL/BRD2 in human HeLa cells assessed as maximum degradation of BRD2 measured after 18 hrs by Western blot analysis relative to control; type: cell-based
[17] = test system: von Hippel-Lindau disease tumor suppressor/Bromodomain-containing protein 4; test: PROTAC activity at human VHL/BRD4 in human HeLa cells assessed as maximum degradation of BRD4 measured after 18 hrs by Western blot analysis relative to control
[18] = target: T4, von Hippel-Lindau disease tumor suppressor/Bromodomain-containing protein 2; test: PROTAC activity at human VHL/BRD2 in human HeLa cells assessed as […] incubated for 16 hrs by Western blot analysis; type: cell-based
[19] = target: T5, von Hippel-Lindau disease tumor suppressor/Bromodomain-containing protein 3 (Homo sapiens, UniProt Q15059+P40337); test: PROTAC activity at human VHL/BRD3 in human HeLa cells assessed as maximum degradation of BRD3 measured after 18 hrs by Western blot analysis relative to control; type: cell-based
Target sequence in this assay (P40337 whole entry partner): as the sequence (P40337 whole entry) above
Target sequence in this assay (Q15059 2-726 limits assumed): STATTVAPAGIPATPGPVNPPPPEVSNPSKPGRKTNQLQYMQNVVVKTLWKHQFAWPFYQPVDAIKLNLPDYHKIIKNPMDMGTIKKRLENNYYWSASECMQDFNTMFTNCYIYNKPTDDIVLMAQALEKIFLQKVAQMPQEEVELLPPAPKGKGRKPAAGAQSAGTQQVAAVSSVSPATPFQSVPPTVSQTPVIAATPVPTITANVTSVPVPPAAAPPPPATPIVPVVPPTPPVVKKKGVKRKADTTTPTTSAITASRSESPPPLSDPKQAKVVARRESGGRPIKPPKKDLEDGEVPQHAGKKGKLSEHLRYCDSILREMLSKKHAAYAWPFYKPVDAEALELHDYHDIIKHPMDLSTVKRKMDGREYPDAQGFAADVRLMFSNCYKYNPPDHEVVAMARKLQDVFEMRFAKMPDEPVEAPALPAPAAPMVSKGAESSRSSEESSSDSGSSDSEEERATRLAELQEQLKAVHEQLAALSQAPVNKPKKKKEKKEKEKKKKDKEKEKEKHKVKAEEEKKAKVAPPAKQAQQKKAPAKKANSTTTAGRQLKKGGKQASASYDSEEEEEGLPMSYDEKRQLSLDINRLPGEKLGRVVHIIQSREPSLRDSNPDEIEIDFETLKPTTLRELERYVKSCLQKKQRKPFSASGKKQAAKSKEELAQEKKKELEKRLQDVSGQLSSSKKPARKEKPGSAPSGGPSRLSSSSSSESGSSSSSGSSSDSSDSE

[20] = target: T5, von Hippel-Lindau disease tumor suppressor/Bromodomain-containing protein 3; test: PROTAC activity at human VHL/BRD3 in human HeLa cells assessed as […] incubated for 16 hrs by Western blot analysis; type: cell-based
[21] = PROTAC activity at human VHL/BRD4 in human HeLa cells assessed as degradation of BRD4 incubated for 16 hrs by Western blot analysis
[22] = target: T2, von Hippel-Lindau disease tumor suppressor/Androgen receptor; test: PROTAC activity at VHL/AR in human VCaP cells assessed as induction of AR degradation by Western blot analysis; type: cell-based
Target sequence in this assay (P10275 whole entry): as the sequence (P10275 whole entry) above
Target sequence in this assay (P40337 whole entry): as the sequence (P40337 whole entry) above

[23] = target: T2, von Hippel-Lindau disease tumor suppressor/Androgen receptor; test: PROTAC activity at VHL/AR-V7 in human 22Rv1 cells assessed as induction of AR degradation by Western blot analysis; type: cell-based
Target sequence in this assay (P10275 whole entry, looked up, change not shown): as the sequence (P10275 whole entry) above
Target sequence in this assay (P40337 whole entry, looked up, change not shown): as the sequence (P40337 whole entry) above

T1 sequence (P40337 whole entry): as above
Chain of von Hippel-Lindau disease tumor suppressor/Bromodomain-containing protein 4 (Homo sapiens, UniProt O60885+P40337) (P40337 whole entry, looked up, other chains not shown): as the sequence (P40337 whole entry) above
Chain of Von Hippel-Lindau disease tumor suppressor/Elongin B/Elongin C (P40337 whole entry, looked up): as the sequence (P40337 whole entry) above
Chain of von Hippel-Lindau disease tumor suppressor/Epidermal growth factor receptor (Homo sapiens), P00533+P40337 [UNDEFINED MUTATION] (P00533 whole entry, looked up, stated change not applied): as the sequence (P00533 whole entry, looked up, stated change not applied) above
Chain of von Hippel-Lindau disease tumor suppressor/Epidermal growth factor receptor (Homo sapiens), P00533+P40337 [UNDEFINED MUTATION] (P40337 whole entry, looked up, stated change not applied): as the sequence (P40337 whole entry) above

Kd [2]: 149 nM
SMILES: Cc1cc(-c2scnc2C)ccc1CNC(=O)[C@@H]1C[C@@H](O)CN1C(=O)[C@H](NC(=O)C1(C#N)CC1)C(C)(C)C

IC50 [11]: 130 nM | Kd [12]: 63 nM
SMILES: CC(=O)N[C@H](C(=O)N1C[C@H](O)C[C@H]1C(=O)N[C@@H](C)c1ccc(-c2scnc2C)cc1)C(C)(C)C

DC50 [14]: 1 nM
SMILES: CC(=O)N[C@H](C(=O)N1C[C@H](O)[C@H](F)[C@H]1C(=O)Nc1ccc(-c2scnc2C)cc1)C(C)(C)C

Kd [2]: 86 nM
SMILES: Cc1cc(-c2scnc2C)ccc1[C@H](C)NC(=O)[C@@H]1C[C@@H](O)CN1C(=O)[C@H](NC(=O)C1(C#N)CC1)C(C)(C)C

IC50 [11]: 26000 nM
SMILES: CC(=O)N[C@H](C(=O)N1C[C@H](O)C[C@H]1C(=O)N[C@H](C)c1ccc(-c2scnc2C)cc1)C(C)(C)C

Continued, compound first:

SMILES: Cc1cc(CC(=O)N2C[C@H](O)C[C@H]2C(=O)NCc2cccc(Cl)c2)on1
IC50 [1]: 117 nM

SMILES: COc1cc2c(Oc3ccc(NC(=O)C4(C(=O)Nc5ccc(F)cc5)CC4)cc3F)ccnc2cc1OCCOCCOCCOc1cc(-c2scnc2C)ccc1CNC(=O)[C@@H]1C[C@@H](O)CC1C(=O)[C@H](C(C)C)C1Cc2ccccc2C1=O (some centres not stated)
Emax [3]: 99.4% | DC50 [4]: 66.2 nM

SMILES: Cc1cc([C@H](C(=O)N2C[C@H](S(=O)(=O)F)C[C@H]2C(=O)N[C@@H](CC(=O)N2CCC(C#Cc3ccc(C(=O)N[C@H]4C(C)(C)[C@H](Oc5ccc(C#N)c(Cl)c5)C4(C)C)cc3)CC2)c2ccc(-c3scnc3C)cc2)C(C)C)on1
DC50 [5]: 212 nM | Emax [6]: 59%

SMILES: Cc1ncsc1-c1ccc(CNC(=O)[C@@H]2C[C@@H](O)CN2C(=O)[C@H](NC(=O)COCCOCCOc2ccc(-c3ccc4ncnc(Nc5ccc(OCc6cccc(F)c6)c(Cl)c5)c4c3)cc2)C(C)(C)C)cc1
Emax [7]: 68.8% | Emax [8]: 97.6% | DC50 [9]: 736 nM | DC50 [10]: 39.2 nM

SMILES: Cc1ncsc1-c1ccc(CNC(=O)[C@@H]2C[C@@H](O)CN2C(=O)[C@H](NC(=O)C2(C#N)CC2)C(C)(C)C)cc1F
Kd [2]: 97 nM

SMILES: COc1cc(-c2scnc2C)cc(OC)c1CNC(=O)[C@@H]1C[C@@H](O)CN1C(=O)[C@H](NC(=O)C1(C#N)CC1)C(C)(C)C
Kd [2]: 6240 nM

SMILES: Cc1ncsc1-c1ccc(CNC(=O)[C@H]2C[C@H](O)CN2C(=O)[C@H](NC(=O)CCCCCOCCCCOCCCCOc2cc3ncnc(Nc4ccc(F)c(Cl)c4)c3cc2NC(=O)/C=C/CN(C)C)C(C)(C)C)cc1
Emax [13]: 79.1%

SMILES: Cc1cc(CC(=O)N2C[C@H](O)C[C@H]2C(=O)NCc2ccc(-c3ocnc3C)cc2)on1
IC50 [15]: 12700 nM

SMILES: Cc1ncsc1-c1ccc([C@H](C)NC(=O)[C@H]2C[C@H](O)CN2C(=O)[C@H](NC(=O)COCCOCCOCCNC(=O)C[C@@H]2N=C(c3ccc(Cl)cc3)c3c(sc(C)c3C)-n3c(C)nnc32)C(C)(C)C)cc1
Emax [16]: 98% | Emax [17]: 100% | DC50 [18]: 40 nM | Emax [19]: 100% | DC50 [20]: 100 nM | DC50 [21]: 3 nM

SMILES: Cc1ncsc1-c1ccc([C@@H](C)NC(=O)[C@H]2C[C@H](O)CN2C(=O)[C@H](NC(=O)CCCCCNC(=O)COc2ccccc2-c2csc(N3CCOCC3)n2)C(C)(C)C)cc1
DC50 [22]: 2000 nM | DC50 [23]: 370 nM
